# Measurements published in US20230348506A1, “MACROCYCLIC PANTETHEINE DERIVATIVES AND USES THEREOF” (VectivBio Comet AG, priority 2019, published 2023).
# How the values were obtained:
# Assay type in all cases: cell-based, human
# [1] = system: Methylmalonic Acidemia (MMA) Primary fibroblasts (Tsi 5224 Trans-Hit Bio, 21498 Telethon Network of Genetic Biobanks); assay: Measurement of ATP (ATPlite assay); conditions: 10 μM compound for 2 hours
# Method: Primary adherent fibroblasts were cultured in minimum essential medium (MEM) (Gibco, 25030081) supplemented with 2 mM L-Glutamine (Gibco, 25030081), 15% fetal bovine serum (FBS) (Gibco, 26400044) and 1% penicillin/streptomycin (Gibco, 5140122) at 37° C. and 5% CO2. Cells were collected for either passaging or experiment at ˜70-80% confluence. Cells were obtained by trypsinization and seeded in cell culture microplates either white plate (Thermo Fisher Scientific, 152028) for luminescent measurement or black plate (Thermo Fisher Scientific, 165305) for fluorescent based read out for different assays listed below. Cells were obtained by trypsinization and […] were seeded and allowed to adhere for 16-18 hours to have confluency around 70-80% in the cell well with culture media. After 24 hours prior to measurements (37° C., 5% CO2) media was changed to Dulbecco's Modified Eagle Medium (DMEM, Agilent Seahorse cat #103575-100) with the appropriate supplements (1 mM glucose, 2 mM L-glutamine, 1 mM pyruvate, 10% FBS).
# Assay was performed according to manufacturer instructions (ATPlite Assay Perkin Elmer, 6016941). 50 μl of cell lysis buffer was added to each well with cells in 100 μl of media and incubated for 5 mins at RT in an orbital shaker at 700 rpm to lyse the cells and stabilize the ATP. […]
# [2] = system: CD14+ monocytes differentiated to M1 macrophages; assay: M1 differentiation assay (IL6 by ELISA); conditions: 10 μM compound
# Method: Monocytes were isolated by positive isolation with CD14+ microbeads (Miltenyi, 130-050-201). Monocytes were 99% viable and were 96% purity as analyzed by FACS and CD14+ (BD, 563561). 100,000 monocytes along with compounds at the dose of 10 and 50 μM were allowed to differentiate to macrophages with 10 ng/ml GMCSF (R&D, 15-GM-050/CF) in RPMI complete media (Invitrogen, 22400089) with 15% FBS (Hyclone SV30087.03) and 1% Penicillin-Streptomycin (Gibco, 15140-122). On day 2 and 4 half the media was refreshed with fresh GM-CSF and compounds at 10 and 50 μM dose. On day 6 the macrophages were matured with GMCSF, IFNγ (R&D 285-IF-100/CF) and LPS (Sigma, L6143) in the presence of 10 μM and 50 μM of compounds. After 24 h, supernatant was collected for the measurement of TNFα (DKW, 1117202) IL6 (DKW, 1110602), IL10 (DKW, 1110003) by ELISA. Macrophages were detached gently on ice with EDTA (Invitrogen, 15575-038) and analyzed by FACS (BD LSR Fortessa, 853492). […]
# [3] = system: MMA Patient fibroblasts (GM01673, Coriell Institute for Medical Research); assay: Mitochondrial fusion and networking (high-content imaging); set-up: key: Mitochondrial elongation and networking was described as slight, mild or good; Mitochondrial elongation and networking was described as slight, mild or good; Mitochondrial elongation and networking was described as slight, mild or good; conditions: 10 μM compound, 2 hours, compared to vehicle control
# Method: (§1) Cells were seeded in 96-well plates (density 3000 cells/well) in culture minimum MEM (GIBCO, 10370-021) supplemented with 2 mM L-Glutamine (Thermo Fisher Scientific), 15% FBS (Thermo Fisher Scientific 26400044) and 1% penicillin/streptomycin. Cells were incubated for 48 hours (37° C, 5% CO2), then treated with 10 μM compounds from the present disclosure, 1% DMSO (vehicle) or 5 μM FCCP (control) for 2 hours in fasted conditional medium: Agilent XF DMEM (Agilent 103575-100), pH 7.4 supplemented with 10% FBS (Thermo Fisher Scientific 26400044), 0.03% penicillin/streptomycin 1 mM glucose, 2 mM L-glutamine and 1 mM pyruvate.
# (§2) After treatment, media was removed, and cells were stained with 100 μl of 1×mixture dye solution of 1 μg/mL JC-1 (Invitrogen Cat #T3168) and 50 ng/ml MitoTracker deep red (Invitrogen Cat #M22426) at 37° C. for 30 minutes. Next, staining was removed, the cells were washed once with 150 μl PBS, and 150 μl of fasted conditional medium (described above) is added to each well. Analysis was carried out on live cells using a Thermo Scientific CellInsight CX7 LZR High-Content Screening Platform. Mitochondrial elongation and networking was described as slight, mild or good.
# [4] = system: PA Patient fibroblasts (Tsi 3618 Trans-Hit Bio); assay: as above; set-up: key: Mitochondrial elongation and networking was described as slight, mild or good; Mitochondrial elongation and networking was described as slight, mild or good; Mitochondrial elongation and networking was described as slight, mild or good; conditions: 10 μM compound, 2 hours, compared to vehicle control
# Method: as §1, §2
structure (smiles),measurement,setting,value
"CC1(C)COC(=O)CCC(=O)SCCNC(=O)CCNC(=O)[C@@H]1O [Compound 206, (R)-15-hydroxy-16,16-dimethyl-1-oxa-6-thia-9,13-diazacycloheptadecane-2,5,10,14-tetraone]",increase of ATP levels,[1],at least 5%
same,decrease of levels of IL-6 protein,[2],at least 40%
same,mitochondrial elongation and networking,[3],good
same,mitochondrial elongation and networking,[4],mild
